# Measured values reported in patent publication US9169241B2, “Quinolinyloxyphenylsulfonamides” (Max-Planck-Gesellschaft Zur Forderung der Wissenschaften …, priority 2009, dated 2015).
# Read-outs that look alike come from different tables or passages of the source.
# Experiments:
# Format in all cases: cell-based
# viable cells in culture = experiment: Cell viability assay at 10 μM (CellTiter-Glo, Table VII); details: compound 10 μM, 72 h;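 also: graded A 0-20%; B 21-40%; C 41-60%; D over 60% viable cells relative to DMSO control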
# How it was run: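 Cells were seeded at 1000 cells/well in 96-well plates in 100 μl culture medium and incubated for 72 h with 10 μM compound or a DMSO control. ATP content, which reflects metabolically active and therefore viable cells, was then determined by CellTiter-Glo luminescence (Promega) per the manufacturer's instructions and expressed relative to the DMSO control.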
# cells = experiment: Boyden chamber migration assay (Table VI); details: Homo sapiens, Hs-578T, 16 h, Hs578T cells; 16 h migration
# How it was run: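 Migration read-out is a count of fixed cells on the underside of an […] insert membrane after 16 h. Chemoattractant was medium with 10% FCS in the lower chamber; 20000 cells started in serum-free medium with 0.1% BSA above, and those left on top were removed by swab.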
# Hs578T = experiment: Wound healing migration assay; details: Homo sapiens, Hs-578T; HS578T cell line; Table Ib
# How it was run: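 Compound exposure at 12.5, 6.25 and 3.125 μM, with DMSO control, on scratch-wounded monolayers (150000 cells/24 well, overnight). Wound closure imaged by microscopy, fixed with crystal violet after 48 h or 72 h depending on cell line; IC50 is the concentration giving 50% wound size between t0 and t48/t72.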
# [1] = Homo sapiens, HCT-116, HCT116 def, read-out: percentage (%) of viable cells HCT 116def
# [2] = Homo sapiens, HCT-116, HCT116 wt, read-out: percentage (%) of viable cells HCT 116wt
# [3] = Homo sapiens, HT-29, HT29, read-out: percentage (%) of viable cells HT29
# [4] = Homo sapiens, NCI-H358, H358, read-out: percentage (%) of viable cells H358
# [5] = Homo sapiens, NCI-H1650, H1650, read-out: percentage (%) of viable cells H1650
# [6] = Homo sapiens, NCI-H1666, H1666, read-out: percentage (%) of viable cells H1666
# [7] = Homo sapiens, NCI-H1975, H1975, read-out: percentage (%) of viable cells H1975
# [8] = Homo sapiens, NCI-H1993, H1993, read-out: percentage (%) of viable cells H1993
# [9] = Homo sapiens, A549, read-out: percentage (%) of viable cells A549
# [10] = Homo sapiens, HCC827, read-out: percentage (%) of viable cells HCC827
# [11] = Homo sapiens, SW480, read-out: percentage (%) of viable cells SW480
# [12] = RKO, read-out: percentage (%) of viable cells RKO
Structure (SMILES),viability at 10 µM (viable cells in culture; [1]),viability at 10 µM (viable cells in culture; [2]),viability at 10 µM (viable cells in culture; [3]),viability at 10 µM (viable cells in culture; [4]),viability at 10 µM (viable cells in culture; [5]),viability at 10 µM (viable cells in culture; [6]),viability at 10 µM (viable cells in culture; [7]),viability at 10 µM (viable cells in culture; [8]),viability at 10 µM (viable cells in culture; [9]),viability at 10 µM (viable cells in culture; [10]),viability at 10 µM (viable cells in culture; [11]),viability at 10 µM (viable cells in culture; [12]),IC50 (cells),IC50 (Hs578T)
"COc1cc2c(Oc3ccc(NS(=O)(=O)c4cc(Cl)cc(Cl)c4OC)cc3F)ccnc2cc1OCCCN1CCCCC1 [Example 34, 3,5-Dichloro-N-{3-fluoro-4-[6-methoxy-7-(3-piperidin-1-yl-propoxy)-quinolin-4-yloxy]-phenyl}-2-methoxy-benzenesulfonamide]",21 to 40%,0 to 20%,21 to 40%,0 to 20%,21 to 40%,21 to 40%,0 to 20%,0 to 20%,> 60%,> 60%,0 to 20%,0 to 20%,≤ 5 µM,≤ 12.5 µM
"COc1cc2c(Oc3ccc(NS(=O)(=O)c4cccc5ccccc45)cc3F)ccnc2cc1OCCCN1CCCC(C)C1 (stereo not drawn) [Example 58, Naphthalene-1-sulfonic acid (3-fluoro-4-{6-methoxy-7-[3-(3-methyl-piperidin-1-yl)-propoxy]-quinolin-4-yloxy}-phenyl)-amide]",21 to 40%,0 to 20%,0 to 20%,21 to 40%,> 60%,21 to 40%,0 to 20%,41 to 60%,41 to 60%,> 60%,0 to 20%,0 to 20%,≤ 5 µM,≤ 12.5 µM
"COc1cc2c(Oc3ccc(NS(=O)(=O)c4ccc(Cl)s4)cc3F)ccnc2cc1OCCCN1CCCC(C)C1 (stereo not drawn) [Example 63, 5-Chloro-thiophene-2-sulfonic acid (3-fluoro-4-{6-methoxy-7-[3-(3-methyl-piperidin-1-yl)-propoxy]-quinolin-4-yloxy}-phenyl)-amide]",21 to 40%,0 to 20%,21 to 40%,0 to 20%,41 to 60%,41 to 60%,0 to 20%,0 to 20%,21 to 40%,21 to 40%,0 to 20%,> 60%,≤ 5 µM,≤ 12.5 µM
"COc1cc2c(Oc3cccc(NS(=O)(=O)c4ccccc4C(F)(F)F)c3)ccnc2cc1OCCCN1CCN(C)CC1 [Example 102, N-(3-{6-Methoxy-7-[3-(4-methyl-piperazin-1-yl)-propoxy]-quinolin-4-yloxy}-phenyl)-2-trifluoromethyl-benzenesulfonamide]",0 to 20%,0 to 20%,0 to 20%,0 to 20%,41 to 60%,41 to 60%,21 to 40%,21 to 40%,41 to 60%,21 to 40%,0 to 20%,21 to 40%,≤ 5 µM,≤ 12.5 µM
"COc1cc2c(Oc3ccc(NS(=O)(=O)c4ccccc4F)cc3F)ccnc2cc1OCCN1CCOCC1 [Example 81, 2-Fluoro-N-{3-fluoro-4-[6-methoxy-7-(2-morpholin-4-yl-ethoxy)-quinolin-4-yloxy]-phenyl}-benzenesulfonamide]",21 to 40%,21 to 40%,21 to 40%,0 to 20%,21 to 40%,21 to 40%,0 to 20%,21 to 40%,41 to 60%,0 to 20%,0 to 20%,41 to 60%,≤ 5 µM,12.5 to 50 µM
COc1cc2c(Oc3ccc(NS(=O)(=O)c4cc(C)ccc4F)cc3F)ccnc2cc1OCCCN1CCCC(C)C1 (stereo not drawn) [Example 55],21 to 40%,0 to 20%,21 to 40%,0 to 20%,0 to 20%,0 to 20%,> 60%,0 to 20%,21 to 40%,41 to 60%,21 to 40%,41 to 60%,≤ 5 µM,≤ 12.5 µM
"COc1cc2c(Oc3ccc(NS(=O)(=O)c4c(F)cccc4F)cc3F)ccnc2cc1OCCN1CCOCC1 [Example 82, 2,6-Difluoro-N-{3-fluoro-4-[6-methoxy-7-(2-morpholin-4-yl-ethoxy)-quinolin-4-yloxy]-phenyl}-benzenesulfonamide]",21 to 40%,0 to 20%,0 to 20%,21 to 40%,21 to 40%,41 to 60%,21 to 40%,0 to 20%,> 60%,21 to 40%,21 to 40%,41 to 60%,5 to 50 µM,12.5 to 50 µM
"COc1cc2c(Oc3ccc(NS(=O)(=O)c4cccc(Oc5ccccc5)c4)cc3F)ccnc2cc1OCCCN1CCCC(C)C1 (stereo not drawn) [Example 59, N-(3-Fluoro-4-{6-methoxy-7-[3-(3-methyl-piperidin-1-yl)-propoxy]-quinolin-4-yloxy}-phenyl)-3-phenoxy-benzenesulfonamide]",0 to 20%,0 to 20%,0 to 20%,21 to 40%,> 60%,41 to 60%,21 to 40%,0 to 20%,21 to 40%,21 to 40%,0 to 20%,0 to 20%,≤ 5 µM,≤ 12.5 µM
"COc1cc2c(Oc3c(Cl)cc(NS(=O)(=O)c4c(F)cccc4F)cc3Cl)ccnc2cc1OCCCN1CCN(C)CC1 [Example 88, N-(3,5-Dichloro-4-{6-methoxy-7-[3-(4-methyl-piperazin-1-yl)-propoxy]-quinolin-4-yloxy}-phenyl)-2,6-difluoro-benzenesulfonamide]",0 to 20%,41 to 60%,21 to 40%,0 to 20%,41 to 60%,21 to 40%,0 to 20%,0 to 20%,41 to 60%,0 to 20%,21 to 40%,41 to 60%,≤ 5 µM,–
"COc1cc2c(Oc3ccc(NS(=O)(=O)c4ccc(F)c(Cl)c4)cc3F)ccnc2cc1OCCCN1CCCC(C)C1 (stereo not drawn) [Example 57, 3-Chloro-4-fluoro-N-(3-fluoro-4-{6-methoxy-7-[3-(3-methyl-piperidin-1-yl)-propoxy]-quinolin-4-yloxy}-phenyl)-benzenesulfonamide]",21 to 40%,> 60%,0 to 20%,21 to 40%,41 to 60%,41 to 60%,0 to 20%,21 to 40%,> 60%,> 60%,0 to 20%,0 to 20%,5 to 50 µM,≤ 12.5 µM
"COc1cc2c(Oc3ccc(NS(=O)(=O)c4ccc(C)c(F)c4)cc3F)ccnc2cc1OCCCN1CCCC(C)C1 (stereo not drawn) [Example 56, 3-Fluoro-N-(3-fluoro-4-{6-methoxy-7-[3-(3-methyl-piperidin-1-yl)-propoxy]-quinolin-4-yloxy}-phenyl)-4-methyl-benzenesulfonamide]",21 to 40%,21 to 40%,0 to 20%,0 to 20%,41 to 60%,21 to 40%,0 to 20%,41 to 60%,> 60%,21 to 40%,0 to 20%,21 to 40%,≤ 5 µM,≤ 12.5 µM
